Source: patent US8618178B2, “Method and substances for treating T-cell mediated autoimmune diseases” (Eberhard-Karls-Universitaet Tuebingen Universitaetsklinikum, priority 2006, dated 2013)
Entries after “also recorded” stand apart in the source; their conditions may differ. Where a name gives a salt, the structure may show the parent alone.

Experiments:
[1] = system: PLP-specific CD4+ T cells; experiment: ELISPOT cytokine analysis of PLP-specific CD4+ T cells from draining lymph nodes of fed mice; assay type: in vivo, SJL mice; conditions: 6 days after immunization, ELISPOT IL-4 / IFN-γ
Experimental: Spleen and lymph node CD4^+ T cells were stimulated with PLP (proteolipid protein) peptide 139-151 (10 μg/ml) and stimulated for four days with irradiated SJL-APC in the presence or absence of L-BSO (0.5 mM, Sigma), expanded for three to four days and then restimulated for cytokine production (proteolipid protein is the commonest myelin protein in the central nervous system and plays an important part as an autoantigen in the onset of multiple sclerosis). Next, 10^7 sham (control) or L-BSO treated T cells were injected intraperitoneally into naive SJL mice and the EAE developing as a result was observed. […] For the cytokine analysis of PLP-specific T cells, the draining lymph nodes of the SJL mice were removed 6 days after the immunization and CD4^+ T cells antigen-specifically analyzed (ELISPOT). […] After washing with H2O, the number of spots was determined in the ELISPOT reader (Biosys).
In order further to study whether GSH deprivation can also influence the differentiation and pathogenicity of autoreactive T cells in vivo, mice were fed with DMF or L-BSO in the drinking water, and the control group only with drinking water. […] 6 days after immunization, the draining lymph nodes of the mice were analyzed. For this, the CD4^+ T cells were isolated and the cytokine production of PLP-specific T cells measured using ELISPOT after in vitro stimulation.

[2] = system: DC; experiment: Colorimetric determination of cellular GSH content of DC; assay type: cell-based, mouse; conditions: L-BSO 0.5 mM, DMF 70 μM, MMF 200 μM
Experimental: Cellular GSH and GSSG were determined in micro-titer plate assays using colorimetric methods. The cellular GHS content is determined as a percentage of the GSH levels in freshly prepared controls or as pmol 10^−6 cells. GSSG was not detectable.
As antigen presenting cells (APC), T cell depleted spleen cells from syngenic mice were used. Dendritic cells (DC) which were obtained from bone marrow (BMDC) and cultured with GM-CSF were used for the relevant experiments on day 7 of culturing. For the experiment, in each case an equal number of APC were cultured either with the medium alone, with L-BSO (C8H18N2O3S, 0.5 mM), dimethyl sulfoxide DMSO(C2H6OS), dimethyl fumarate DMF (C6H8O4, dissolved in DMSO, 70 μM), or calcium monomethyl fumarate (MMF; CaC10H10O8, 200 μM). All substances except for MMF (Fumapharm) were purchased from Sigma-Aldrich. At the respective stated times (see below) the cells were either analyzed directly for their GSH content, used for T cell stimulation or stimulated for […] with Escherichia coli lipopolysaccharides 055.B5 (Sigma-Aldrich) or CpG-DNA 1668 (MWG Biotech) and IL-4 (Stratmann). […]
For the testing of the potential of pharmaceutical substances to lower the glutathione content of cells, the following procedure was carried out: cells (antigen-presenting cells or dendritic cells) are incubated with different concentrations of the given pharmaceutical substance to be tested. Then, after an incubation time of 1 hr, 2 hrs, 24 hrs or 48 hrs, the glutathione content of the cells is determined in comparison to control cells. […]
The samples and the GSH standard were diluted in a microtiter plate and the assay reaction started by addition of a reaction mix which contains glutathione reductase. […] The rise in the extinction is measured at 405 nm at 30 sec intervals over 10 mins with a microtiter plate reader. The glutathione content was determined using a calibration curve. […] The protein content was determined by the method of Lowry (see for example, Dringen, et al., “Supply by Astrocytes of CysGly as Precursor for neuronal Glutathione”, J. Neurosci 19:562-569). […]

[3] = GSH levels in organs of immunized mice after feeding; assay type: in vivo; conditions: fed in the drinking water; data not shown
Text: In order further to study whether GSH deprivation can also influence the differentiation and pathogenicity of autoreactive T cells in vivo, mice were fed with DMF or L-BSO in the drinking water, and the control group only with drinking water. Active EAE induction was effected on day 10 with PLP peptide in complete Freund's adjuvant (CFA) and pertussis toxin. The mice were examined daily regarding the course of the artificially triggered disease. Through the administration of L-BSO or DMF, the GSH levels in lymphoid organs and in the brain of immunized mice could be lowered (not shown). […] 6 days after immunization, the draining lymph nodes of the mice were analyzed. For this, the CD4^+ T cells were isolated and the cytokine production of PLP-specific T cells measured using ELISPOT after in vitro stimulation. […] The pharmaceutical substances to be tested can also be analyzed ex vivo for their potential to deplete GSH. For this, after treatment of experimental mice, small tissue pieces are removed from the respective organs and placed in about 1 ml of 1% SSA. The tissue piece in SSA is homogenized using an ultrasonic probe. The further GSH and protein determination is effected according to the procedure described for APC and DC. Comparison with the GSH content of control cells or control tissue indicates the GSH-lowering action of the pharmaceutical substance to be tested.

Structure (SMILES) | cytokine pattern of PLP-specific CD4+ T cells [1] | intracellular GSH content of DC [2] | GSH levels in lymphoid organs and in the brain of immunized mice [3]
COC(=O)/C=C/C(=O)OC [DMF, dimethyl fumarate] | TH2-like pattern | depletes the intracellular glutathione level; also recorded: marked decrease | lowered
CCCCS(=N)(=O)CCC(N)C(=O)O [L-BSO, L-buthionine sulfoximine] | TH2-like pattern | depletes the intracellular glutathione level; also recorded: marked decrease | lowered
COC(=O)/C=C/C(=O)[O-].[Ca+] [MMF, calcium monomethyl fumarate] |  | depletes the intracellular glutathione level; also recorded: marked decrease | 
